Values joined by “and” are separate entries in the source; they are usually repeats but may differ in a detail not shown here. Identical values can stand only once. Inconclusive results and toxic doses are left out. Rule as the data show it: active = T/C of 150% or more; inactive = T/C below 125%.
Tested on: L1210 leukemia ip in BDF1 mice, survival T/C
Assay: NCI In Vivo Anticancer Drug Screen. Data for tumor model L1210 Leukemia (intraperitoneal) in B6D2F1 (BDF1) mice
Settings: endpoint: mean survival time, higher = longer survival
Outline: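 Ratio derived from survival: compound-dosed mice over vehicle-dosed mice, all bearing a transplantable tumor.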

[1] = dose: 25.0 mg/kg/injection, schedule: Q04DX003 (ip), vehicle: saline
[2] = dose: 50.0 mg/kg/injection, schedule: Q04DX003 (ip), vehicle: saline
[3] = dose: 100.0 mg/kg/injection, schedule: Q01DX001 (ip), vehicle: saline
[4] = dose: 100.0 mg/kg/injection, schedule: Q04DX003 (ip), vehicle: saline
[5] = dose: 12.5 mg/kg/injection, schedule: Q01DX009 (ip), vehicle: saline with Tween-80
[6] = dose: 25.0 mg/kg/injection, schedule: Q01DX009 (ip), vehicle: saline with Tween-80
[7] = dose: 50.0 mg/kg/injection, schedule: Q01DX009 (ip), vehicle: saline with Tween-80
[8] = dose: 100.0 mg/kg/injection, schedule: Q01DX009 (ip), vehicle: saline with Tween-80
[9] = dose: 100.0 mg/kg/injection, schedule: Q04DX002 (ip), vehicle: saline with Tween-80
[10] = dose: 100.0 mg/kg/injection, schedule: Q04DX003 (ip), vehicle: saline with Tween-80
[11] = dose: 200.0 mg/kg/injection, schedule: Q01DX009 (ip), vehicle: saline with Tween-80
[12] = dose: 200.0 mg/kg/injection, schedule: Q04DX002 (ip), vehicle: saline with Tween-80
[13] = dose: 200.0 mg/kg/injection, schedule: Q04DX003 (ip), vehicle: saline with Tween-80
[14] = dose: 400.0 mg/kg/injection, schedule: Q01DX009 (ip), vehicle: saline with Tween-80
[15] = dose: 400.0 mg/kg/injection, schedule: Q04DX002 (ip), vehicle: saline with Tween-80
[16] = dose: 400.0 mg/kg/injection, schedule: Q04DX003 (ip), vehicle: saline with Tween-80
[17] = dose: 50.0 mg/kg/injection, schedule: Q01DX001 (ip), vehicle: saline
[18] = dose: 200.0 mg/kg/injection, schedule: Q01DX001 (ip), vehicle: saline
[19] = dose: 400.0 mg/kg/injection, schedule: Q01DX001 (ip), vehicle: saline
[20] = dose: 100.0 mg/kg/injection, schedule: Q04DX002 (ip), vehicle: Klucel (hydroxypropylcellulose) (HPC)
[21] = dose: 200.0 mg/kg/injection, schedule: Q04DX002 (ip), vehicle: Klucel (hydroxypropylcellulose) (HPC)
[22] = dose: 400.0 mg/kg/injection, schedule: Q04DX002 (ip), vehicle: Klucel (hydroxypropylcellulose) (HPC)

Measured: T/C

Cc1ccc([N+](=O)[O-])cc1O
inactive: [1] 98 % of control | [2] 102 % of control | [3] 97 % of control | [4] 97 % of control

c1ccc([P+](CC[P+](c2ccccc2)(c2ccccc2)c2ccccc2)(c2ccccc2)c2ccccc2)cc1
inactive: dose: 2.5 mg/kg/injection, schedule: Q04DX003 (ip), vehicle: saline 96 % of control | dose: 5.0 mg/kg/injection, schedule: Q01DX009 (ip), vehicle: saline 96 % of control | dose: 5.0 mg/kg/injection, schedule: Q04DX003 (ip), vehicle: saline 98 % of control | dose: 10.0 mg/kg/injection, schedule: Q01DX009 (ip), vehicle: saline 96 % of control | dose: 10.0 mg/kg/injection, schedule: Q04DX003 (ip), vehicle: saline 95 % of control and 98 % of control | dose: 20.0 mg/kg/injection, schedule: Q01DX009 (ip), vehicle: saline 104 % of control

CCN(CC)CCN(C)c1cc(C)nc(/N=C(\N)Nc2ccc(Cl)c(Cl)c2)n1
inactive: dose: 18.75 mg/kg/injection, schedule: Q01DX009 (ip), vehicle: saline with Tween-80 92 % of control | dose: 37.5 mg/kg/injection, schedule: Q01DX009 (ip), vehicle: saline with Tween-80 103 % of control | dose: 37.5 mg/kg/injection, schedule: Q04DX003 (ip), vehicle: saline with Tween-80 93 % of control | dose: 75.0 mg/kg/injection, schedule: Q01DX009 (ip), vehicle: saline with Tween-80 92 % of control | dose: 75.0 mg/kg/injection, schedule: Q04DX003 (ip), vehicle: saline with Tween-80 97 % of control

Clc1cc(Cl)nc(N2CC2)n1
inactive: dose: 0.02 mg/kg/injection, schedule: Q01DX Z (ip), vehicle: methylcellulose (MC) 91 % of control | dose: 6.25 mg/kg/injection, schedule: Q01DX009 (ip), vehicle: acetone 108 % of control | dose: 12.5 mg/kg/injection, schedule: Q01DX009 (ip), vehicle: acetone 111 % of control | dose: 12.5 mg/kg/injection, schedule: Q04DX003 (ip), vehicle: saline 98 % of control | [1] 92 % of control

O=C(O)/C=C/c1cccc(Cl)c1
inactive: dose: 100.0 mg/kg/injection, schedule: Q01DX009 (ip), vehicle: gum acacia 113 % of control | dose: 200.0 mg/kg/injection, schedule: Q01DX009 (ip), vehicle: gum acacia 104 % of control | dose: 400.0 mg/kg/injection, schedule: Q01DX009 (ip), vehicle: gum acacia 100 % of control

CC[N+](C)(CC)Cc1cc(C(C)=O)c(C)o1
inactive: [5] 90 % of control | [6] 95 % of control | [7] 93 % of control

CN(C)c1ccc(I)cc1
inactive: dose: 25.0 mg/kg/injection, schedule: Q01DX001 (ip), vehicle: saline with Tween-80 107 % of control | dose: 50.0 mg/kg/injection, schedule: Q01DX001 (ip), vehicle: saline with Tween-80 110 % of control

ClC1=C(Cl)C2(Cl)CC1(Cl)C1OC12 (stereo unspecified)
inactive: [5] 104 % of control | [6] 104 % of control | [7] 96 % of control

O=C(O)/C=C/C(=O)Nc1ccccc1NC(=O)/C=C/C(=O)O
inactive: dose: 100.0 mg/kg/injection, schedule: Q01DX009 (ip), vehicle: Klucel (hydroxypropylcellulose) (HPC) 101 % of control | dose: 200.0 mg/kg/injection, schedule: Q01DX009 (ip), vehicle: Klucel (hydroxypropylcellulose) (HPC) 92 % of control | dose: 400.0 mg/kg/injection, schedule: Q01DX009 (ip), vehicle: Klucel (hydroxypropylcellulose) (HPC) 97 % of control

O=C(Nc1ccc2ccccc2c1)c1ccc(Cl)cc1
inactive: [8] 104 % of control and 92 % of control | [9] 94 % of control and 97 % of control | [10] 97 % of control | [11] 97 % of control and 98 % of control | [12] 100 % of control and 101 % of control | [13] 101 % of control | [14] 95 % of control and 111 % of control | [15] 89 % of control and 90 % of control | [16] 97 % of control

CCOC(=N)CCl
inactive: [2] 101 % of control | [4] 95 % of control

CCC(CO)NC(=O)/C=C/c1ccccc1 (stereo unspecified)
inactive: dose: 100.0 mg/kg/injection, schedule: Q01DX001 (ip), vehicle: saline with Tween-80 101 % of control | [10] 97 % of control | dose: 200.0 mg/kg/injection, schedule: Q01DX001 (ip), vehicle: saline with Tween-80 94 % of control | [13] 97 % of control | dose: 400.0 mg/kg/injection, schedule: Q01DX001 (ip), vehicle: saline with Tween-80 100 % of control | [16] 91 % of control

CC(=O)C1=CC[C@H]2[C@@H]3CCC4=CC(=O)CC[C@]4(C)[C@H]3C(=O)C[C@]12C
inactive: dose: 50.0 mg/kg/injection, schedule: Q01DX Z (sc), vehicle: steriod suspending solution 102 % of control | dose: 250.0 mg/kg/injection, schedule: Q01DX Z (sc), vehicle: steriod suspending solution 101 % of control | dose: 500.0 mg/kg/injection, schedule: Q01DX Z (sc), vehicle: steriod suspending solution 102 % of control

COc1ccc2c(c1)OC(OC)(c1ccccc1)C(O)(OC)C2=O (stereo unspecified)
inactive: [17] 96 % of control | [3] 98 % of control | [18] 96 % of control | [19] 98 % of control

O=C(O)C/C=C/c1ccccc1Br
inactive: dose: 100.0 mg/kg/injection, schedule: Q01DX001 (ip), vehicle: Klucel (hydroxypropylcellulose) (HPC) 91 % of control | dose: 200.0 mg/kg/injection, schedule: Q01DX001 (ip), vehicle: Klucel (hydroxypropylcellulose) (HPC) 101 % of control | dose: 400.0 mg/kg/injection, schedule: Q01DX001 (ip), vehicle: Klucel (hydroxypropylcellulose) (HPC) 95 % of control

CCCCC(CC)C(=O)CC(C)=O (stereo unspecified)
inactive: [17] 103 % of control | [3] 95 % of control | [18] 103 % of control | [19] 97 % of control

O=C1CSc2ccccc2N1CCN1C(=O)CSc2ccccc21
inactive: dose: 50.0 mg/kg/injection, schedule: Q04DX002 (ip), vehicle: saline with Tween-80 93 % of control | [9] 90 % of control | [12] 101 % of control | [15] 86 % of control

Cc1ccc(S(=O)(=O)OCC(COS(=O)(=O)c2ccc(C)cc2)(COS(=O)(=O)c2ccc(C)cc2)COS(=O)(=O)c2ccc(C)cc2)cc1
inactive: dose: 50.0 mg/kg/injection, schedule: Q04DX002 (ip), vehicle: Klucel (hydroxypropylcellulose) (HPC) 97 % of control | [20] 93 % of control and 105 % of control | [21] 102 % of control | [22] 110 % of control

Cc1cccc(Cl)c1NC(=O)CCC(=O)O
inactive: [3] 101 % of control | [18] 101 % of control | [19] 95 % of control

CNS(=O)(=O)c1ccc(N)cc1
inactive: dose: 100.0 mg/kg/injection, schedule: Q01DX001 (ip), vehicle: other 107 % of control | [8] 102 % of control | dose: 100.0 mg/kg/injection, schedule: Q04DX003 (ip), vehicle: other 97 % of control | dose: 200.0 mg/kg/injection, schedule: Q01DX001 (ip), vehicle: other 104 % of control | [11] 110 % of control | dose: 200.0 mg/kg/injection, schedule: Q04DX003 (ip), vehicle: other 106 % of control | dose: 400.0 mg/kg/injection, schedule: Q01DX001 (ip), vehicle: other 100 % of control | [14] 98 % of control | dose: 400.0 mg/kg/injection, schedule: Q04DX003 (ip), vehicle: other 108 % of control

Cc1ccc(NNP(Cl)(c2ccccc2)(c2ccccc2)c2ccccc2)cc1
inactive: [17] 92 % of control | [3] 97 % of control

OC(c1nc2ccccc2[nH]1)C(O)C(O)C(O)c1nc2ccccc2[nH]1 (stereo unspecified)
inactive: [3] 105 % of control | [20] 100 % of control | [18] 96 % of control | [21] 87 % of control | [19] 86 % of control | [22] 97 % of control

CCOP(=S)(N1CC1)N1CC1
inactive: dose: 100.0 mg/kg/injection, schedule: Q01DX001 (ip), vehicle: carboxymethylcellulose (CMC) 95 % of control | dose: 200.0 mg/kg/injection, schedule: Q01DX001 (ip), vehicle: carboxymethylcellulose (CMC) 95 % of control | dose: 400.0 mg/kg/injection, schedule: Q01DX001 (ip), vehicle: carboxymethylcellulose (CMC) 94 % of control
